Assay results as given in the NIST ThermoML archive (doi:10.1021/je901020a).
± gives the expanded uncertainty stated by the source.

How the values were obtained:
[1] = refractive index (Na D-line) (dimensionless); xn = mol fraction of the nth substance listed; details: 101 kPa, Liquid, Standard Abbe refractometry
[2] = xn = mol fraction of the nth substance listed; details: 101 kPa, Liquid; for speed of sound: Pulse-echo method

C1CCCC1 [cyclopentane] + Cc1ccccc1C
Details | mass density, [2] [kg/m3] | refractive index, [1] | speed of sound, [2] [m/s]
298.15 K, x1 = 0.045 | 870.7 ± 0.5 | 1.49951 ± 0.0011 | 1342 ± 2
298.15 K, x1 = 0.0924 | 865.7 ± 0.5 | 1.49549 ± 0.001 | 1336 ± 2
298.15 K, x1 = 0.1949 | 854.1 ± 0.5 | 1.48698 ± 0.0011 | 1319 ± 2
298.15 K, x1 = 0.2932 | 842.5 ± 0.5 | 1.4791 ± 0.001 | 1304 ± 2
298.15 K, x1 = 0.3903 | 830.4 ± 0.5 | 1.47003 ± 0.0011 | 1289 ± 2
298.15 K, x1 = 0.4954 | 816.6 ± 0.6 | 1.46059 ± 0.0011 | 1273 ± 2
298.15 K, x1 = 0.594 | 802.9 ± 0.6 | 1.4507 ± 0.0011 | 1259 ± 2
298.15 K, x1 = 0.6958 | 788.1 ± 0.6 | 1.43935 ± 0.0011 | 1244 ± 2
298.15 K, x1 = 0.7939 | 773 ± 0.6 | 1.42832 ± 0.0011 | 1231 ± 2
298.15 K, x1 = 0.8926 | 757.3 ± 0.6 | 1.41649 ± 0.0011 | 1217 ± 2
298.15 K, x1 = 0.9503 | 747.9 ± 0.6 | 1.40949 ± 0.0011 | 1210 ± 2
298.15 K, x1 = 1 | 740 ± 0.6 | 1.40292 ± 0.001 | 1204 ± 2
313.15 K, x1 = 0.072 | 855 ± 0.5 | 1.48922 ± 0.001 | 1277 ± 2
313.15 K, x1 = 0.0931 | 852.7 ± 0.5 | 1.48739 ± 0.001 | 1274 ± 2
313.15 K, x1 = 0.1919 | 841.5 ± 0.5 | 1.47936 ± 0.001 | 1257 ± 2
313.15 K, x1 = 0.2934 | 829.3 ± 0.5 | 1.47048 ± 0.001 | 1241 ± 2
313.15 K, x1 = 0.3772 | 818.8 ± 0.5 | 1.46299 ± 0.00093 | 1227 ± 2
313.15 K, x1 = 0.4855 | 804.6 ± 0.6 | 1.45278 ± 0.00089 | 1209 ± 2
313.15 K, x1 = 0.5894 | 790.1 ± 0.6 | 1.44238 ± 0.00087 | 1192 ± 2
313.15 K, x1 = 0.685 | 776.2 ± 0.6 | 1.43216 ± 0.00092 | 1177 ± 2
313.15 K, x1 = 0.8099 | 756.9 ± 0.6 | 1.41833 ± 0.001 | 1158 ± 2
313.15 K, x1 = 0.8912 | 743.6 ± 0.6 | 1.40862 ± 0.0012 | 1146 ± 2
313.15 K, x1 = 0.9479 | 734.1 ± 0.7 | 1.402 ± 0.0017 | 1138 ± 2
313.15 K, x1 = 1 | 725 ± 0.7 | 1.39456 ± 0.001 | 1130 ± 2

CC1CCCCC1 [methylcyclohexane] + Cc1cc(C)cc(C)c1
x1 = 1
Details | mass density, [2] [kg/m3] | refractive index, [1] | speed of sound, [2] [m/s]
298.15 K | 765.1 ± 0.6 | 1.42062 ± 0.001 | 1215 ± 2
313.15 K | 751.9 ± 0.6 | 1.41274 ± 0.001 | 1150 ± 2

CC1CCCCC1 [methylcyclohexane] + Cc1ccc(C)cc1
Details | mass density, [2] [kg/m3] | refractive index, [1] | speed of sound, [2] [m/s]
298.15 K, x1 = 0.0513 | 851.4 ± 0.5 | 1.48906 ± 0.001 | 1303 ± 2
298.15 K, x1 = 0.0979 | 846.7 ± 0.5 | 1.48531 ± 0.0011 | 1297 ± 2
298.15 K, x1 = 0.1917 | 837.2 ± 0.5 | 1.47789 ± 0.0011 | 1285 ± 2
298.15 K, x1 = 0.3009 | 826.5 ± 0.5 | 1.46944 ± 0.0011 | 1272 ± 2
298.15 K, x1 = 0.3971 | 817.3 ± 0.5 | 1.46214 ± 0.0011 | 1262 ± 2
298.15 K, x1 = 0.4963 | 808 ± 0.6 | 1.4548 ± 0.0011 | 1252 ± 2
298.15 K, x1 = 0.5987 | 798.8 ± 0.6 | 1.44757 ± 0.0011 | 1243 ± 2
298.15 K, x1 = 0.6966 | 789.9 ± 0.6 | 1.44052 ± 0.0011 | 1234 ± 2
298.15 K, x1 = 0.7958 | 781.6 ± 0.6 | 1.43389 ± 0.0011 | 1227 ± 2
298.15 K, x1 = 0.8922 | 773.4 ± 0.6 | 1.42739 ± 0.0011 | 1221 ± 2
298.15 K, x1 = 0.9501 | 768.9 ± 0.6 | 1.42377 ± 0.0011 | 1217 ± 2
298.15 K, x1 = 1 | 765 ± 0.6 | 1.42062 ± 0.001 | 1215 ± 2
313.15 K, x1 = 0.0506 | 838.4 ± 0.5 | 1.48121 ± 0.001 | 1242 ± 2
313.15 K, x1 = 0.1051 | 832.9 ± 0.5 | 1.4771 ± 0.0011 | 1234 ± 2
313.15 K, x1 = 0.204 | 823.1 ± 0.5 | 1.46914 ± 0.0011 | 1221 ± 2
313.15 K, x1 = 0.3096 | 812.6 ± 0.6 | 1.46083 ± 0.0011 | 1209 ± 2
313.15 K, x1 = 0.4064 | 803.4 ± 0.6 | 1.45361 ± 0.0011 | 1198 ± 2
313.15 K, x1 = 0.5061 | 794 ± 0.6 | 1.44635 ± 0.0011 | 1188 ± 2
313.15 K, x1 = 0.605 | 785.1 ± 0.6 | 1.43928 ± 0.0011 | 1179 ± 2
313.15 K, x1 = 0.7057 | 776.2 ± 0.6 | 1.43227 ± 0.0011 | 1170 ± 2
313.15 K, x1 = 0.8112 | 767.2 ± 0.6 | 1.42509 ± 0.0011 | 1162 ± 2
313.15 K, x1 = 0.9095 | 759 ± 0.6 | 1.41853 ± 0.0011 | 1155 ± 2
313.15 K, x1 = 0.9599 | 755 ± 0.6 | 1.41538 ± 0.0011 | 1152 ± 2
313.15 K, x1 = 1 | 751.9 ± 0.6 | 1.41274 ± 0.001 | 1150 ± 2

CC1CCCCC1 [methylcyclohexane] + Cc1cccc(C)c1
x1 = 1
Details | mass density, [2] [kg/m3] | refractive index, [1] | speed of sound, [2] [m/s]
298.15 K | 765 ± 0.6 | 1.42062 ± 0.00064 | 1215 ± 2
313.15 K | 751.9 ± 0.6 | 1.41274 ± 0.00064 | 1150 ± 2

CC1CCCCC1 [methylcyclohexane] + Cc1ccccc1C
Details | mass density, [2] [kg/m3] | refractive index, [1] | speed of sound, [2] [m/s]
298.15 K, x1 = 0.0558 | 868.7 ± 0.5 | 1.49758 ± 0.0007 | 1340 ± 2
298.15 K, x1 = 0.0973 | 863.5 ± 0.5 | 1.49375 ± 0.0007 | 1333 ± 2
298.15 K, x1 = 0.1875 | 852.9 ± 0.5 | 1.48587 ± 0.0007 | 1318 ± 2
298.15 K, x1 = 0.2979 | 839.7 ± 0.5 | 1.47605 ± 0.0007 | 1300 ± 2
298.15 K, x1 = 0.4084 | 827 ± 0.5 | 1.46659 ± 0.00071 | 1283 ± 2
298.15 K, x1 = 0.4965 | 817.1 ± 0.5 | 1.45929 ± 0.00071 | 1271 ± 2
298.15 K, x1 = 0.5946 | 806.3 ± 0.6 | 1.45128 ± 0.00071 | 1259 ± 2
298.15 K, x1 = 0.6948 | 795.5 ± 0.6 | 1.44332 ± 0.0007 | 1246 ± 2
298.15 K, x1 = 0.7944 | 785.2 ± 0.6 | 1.43568 ± 0.00063 | 1235 ± 2
298.15 K, x1 = 0.8912 | 775.6 ± 0.6 | 1.42852 ± 0.0007 | 1225 ± 2
298.15 K, x1 = 0.9497 | 769.9 ± 0.6 | 1.42429 ± 0.0007 | 1219 ± 2
298.15 K, x1 = 1 | 765 ± 0.6 | 1.42062 ± 0.00064 | 1215 ± 2
313.15 K, x1 = 0.049 | 856.8 ± 0.5 | 1.49036 ± 0.00064 | 1281 ± 2
313.15 K, x1 = 0.0983 | 850.8 ± 0.5 | 1.48589 ± 0.00064 | 1272 ± 2
313.15 K, x1 = 0.1972 | 838.9 ± 0.5 | 1.47705 ± 0.00066 | 1255 ± 2
313.15 K, x1 = 0.2832 | 828.7 ± 0.5 | 1.46962 ± 0.00069 | 1241 ± 2
313.15 K, x1 = 0.403 | 814.8 ± 0.6 | 1.45951 ± 0.00072 | 1222 ± 2
313.15 K, x1 = 0.5001 | 803.8 ± 0.6 | 1.4514 ± 0.00077 | 1208 ± 2
313.15 K, x1 = 0.598 | 793 ± 0.6 | 1.44349 ± 0.00083 | 1195 ± 2
313.15 K, x1 = 0.6977 | 782.3 ± 0.6 | 1.43558 ± 0.0009 | 1182 ± 2
313.15 K, x1 = 0.7947 | 772.2 ± 0.6 | 1.4281 ± 0.00062 | 1171 ± 2
313.15 K, x1 = 0.9013 | 761.5 ± 0.6 | 1.42003 ± 0.001 | 1160 ± 2
313.15 K, x1 = 0.9474 | 756.9 ± 0.6 | 1.4165 ± 0.0011 | 1154 ± 2
313.15 K, x1 = 1 | 751.9 ± 0.6 | 1.41274 ± 0.00064 | 1150 ± 2
